In patent publication US20130230460A1, “USE OF CYANINE DYES FOR THE DETECTION OF TAU FOR DIAGNOSIS OF EARLY-STAGE TAUOPATHIES” (GE HEALTHCARE LIMITED, priority 2010, published 2013):

Legend:
tau aggregates (Tau-412) = target: T1, tau aggregates (Tau-412) (Homo sapiens, UniProt P10636); assay: In vitro binding assay with aggregated tau (fluorescence); conditions: for Kd: aggregated tau 10 μg/sample, 1 h at RT, triplicate; for Selectivity Tau: Aβ1-40: ratio of Kd Aβ1-40 to Kd tau
T1 construct: purchased Stratech
T1 sequence (P10636 1-412 isoform P10636-7): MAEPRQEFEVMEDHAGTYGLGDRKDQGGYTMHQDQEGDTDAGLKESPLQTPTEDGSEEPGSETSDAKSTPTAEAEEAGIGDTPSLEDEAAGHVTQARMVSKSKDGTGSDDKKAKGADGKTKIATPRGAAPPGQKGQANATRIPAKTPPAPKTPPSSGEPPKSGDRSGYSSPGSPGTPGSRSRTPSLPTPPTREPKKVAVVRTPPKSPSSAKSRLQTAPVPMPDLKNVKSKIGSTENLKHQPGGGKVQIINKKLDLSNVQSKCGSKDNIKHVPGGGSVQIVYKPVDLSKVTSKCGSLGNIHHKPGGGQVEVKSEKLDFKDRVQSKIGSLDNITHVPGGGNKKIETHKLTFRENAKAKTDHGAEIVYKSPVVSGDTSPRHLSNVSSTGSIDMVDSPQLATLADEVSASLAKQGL
Procedure: Tau protein (Tau-412 with 2 nucleotide-binding motifs and 4 repeat binding regions, 42.9 kDa, 1 mg/ml, Stratech) was incubated in the presence of heparin (0.1 mg/ml) for 72 h at 37° C. with continuous shaking to generate tau aggregates.
(§1) The two test compounds 18 (see Example 6) and 20 (see Example 5), were dissolved and serially diluted in DMSO. Samples with aggregated tau and Aβ1-40 (10 μg/sample) were incubated with a serial dilution of each test compound (concentration range 1 nM-100 μM) in 96-well plates for 1 h at RT. Following incubation, samples were transferred to spin column plates (Thermo Fisher) and then centrifugated for 2 min at 1,500×g to remove free compound from the samples. Finally, the samples were transferred to black 96-well plates, and the fluorescence intensity measured at […] using a Tecan plate reader. All experiments were performed in triplicate. Kd values for each compound was calculated by fitting the data to a non-linear binding curve using Prism (GraphPad).

Aβ1-40 aggregates = target: T2, Aβ1-40 aggregates (Homo sapiens, UniProt P05067); assay: In vitro binding assay with aggregated Aβ1-40 (fluorescence); conditions: aggregated Aβ1-40 10 μg/sample, 1 h at RT, triplicate
T2 construct: Aβ1-40 protein (4.3 kDa, 1 mg/ml, Invitrogen); purchased Invitrogen
T2 sequence (P05067 672-711 limits assumed): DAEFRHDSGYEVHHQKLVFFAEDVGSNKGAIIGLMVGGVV
Procedure: as §1, with “Aβ1-40 protein (4.3 kDa, 1 mg/ml, Invitrogen) was incubated at room temperature (RT) for 72 h with continuous shaking to generate Aβ1-40 aggregates. The two” for “The two”

insoluble tau aggregates = conditions: J Med Chem, 2009, 52, 3539; cited from earlier work

| Selectivity for aggregated tau compared to Aβ1-40 aggregates (in words) (tau aggregates (Tau-412)) | Kd (tau aggregates (Tau-412)) [µM] | Selectivity Tau: Aβ1-40 (tau aggregates (Tau-412)) | Kd (Aβ1-40 aggregates) [µM] | SMILES | Tau aggregation inhibition (in words) (insoluble tau aggregates) |
| --- | --- | --- | --- | --- | --- |
| highly selective | 0.00088 ± 0.0009 | 33,863 | 29.8 ± 21.3 | COc1ccc2c(c1)N(CCF)/C(=C/C(C)=C/c1sc3ccc(OC)cc3[n+]1CCF)S2 [Compound 18, 3-(2-Fluoroethyl)-2-((1E,3Z)-3-(3-(2-fluoroethyl)-5-methoxybenzo[d]thiazol-2(3H)-ylidene)-2-methylprop-1-en-1-yl)-5-methoxybenzo[d]thiazol-3-ium] | – |
| highly selective | 0.00075 ± 0.00059 | 20,800 | 15.6 ± 8.1 | COc1ccc2c(c1)N(CCO)/C(=C/C(C)=C/c1sc3ccc(OC)cc3[n+]1CCF)S2 [Compound 20, 3-(2-Fluoroethyl)-2-((1E,3Z)-3-(3-(2-hydroxyethyl)-5-methoxybenzo[d]thiazol-2(3H)-ylidene)-2-methylprop-1-en-1-yl)-5-methoxybenzo[d]thiazol-3-ium] | – |
| – | – | – | – | CCC(/C=C1\Sc2ccc(OC)cc2N1CCO)=C\c1sc2ccc(OC)cc2[n+]1CCO [Compound N744] | potent tau aggregation inhibitors |
